Data taken from US20240228504A1, “SUBSTITUTED TRICYCLIC AMIDES, ANALOGUES THEREOF, AND METHODS USING SAME” (Arbutus Biopharma Corporation, priority 2020, published 2024).

These molecules were tested on HBV rcDNA in HepDE19 cells (assay: HepDE19 assay with bDNA quantitation of HBV rcDNA). Settings: HepDE19 assay, inhibition of rcDNA formation, bDNA quantitation; read-out: DE-19bDNA EC50.
Format: cell-based, hepatitis B virus
`CN(C(=O)c1cc(F)c(Br)c(F)c1)C1CNCc2[nH]c(=O)c3cc(F)ccc3c21` (single isomer, unassigned) [Compound 170, 4-Bromo-3,5-difluoro-N-(8-fluoro-6-oxo-1,2,3,4,5,6-hexahydrobenzo[c][1,7]naphthyridin-1-yl)-N-methylbenzamide] was tested, and the EC50 was 22000 nM.
With `CN(C(=O)c1cc2ccccc2[nH]1)[C@@H]1CCC(O)c2[nH]c(=O)c3cc(F)c(F)cc3c21` (single isomer, unassigned) [Compound 505] the EC50 was 50 nM.
With `CN(C(=O)c1cc2c(C(F)F)cc(F)cc2[nH]1)C1CNCc2[nH]c(=O)c3cc(F)ccc3c21` (single isomer, unassigned) [Compound 260, 4-(Difluoromethyl)-6-fluoro-N-(8-fluoro-6-oxo-1,2,3,4,5,6-hexahydrobenzo[c][1,7]naphthyridin-1-yl)-N-methyl-1H-indole-2-carboxamide] the EC50 was 60 nM.
`CN(C(=O)c1cc2cccc(F)c2[nH]1)C1COCc2[nH]c(=O)c3cc(F)c(F)cc3c21` (single isomer, unassigned) [Compound 39, N-(8,9-Difluoro-6-oxo-1,4,5,6-tetrahydro-2H-pyrano[3,4-c]isoquinolin-1-yl)-7-fluoro-N-methyl-1H-indole-2-carboxamide] was tested, and the EC50 was 770 nM.
Molecule `CN(C(=O)c1cc2c(Cl)cc(F)cc2[nH]1)C1CNCc2[nH]c(=O)c3cc(F)c(F)cc3c21` (single isomer, unassigned) [Compound 460, 4-chloro-N-(8,9-difluoro-6-oxo-1,2,3,4,5,6-hexahydrobenzo[c][1,7]naphthyridin-1-yl)-6-fluoro-N-methyl-1H-indole-2-carboxamide] has an EC50 of 11200 nM.
`CN(C(=O)c1cc2cccc(C(F)F)n2c1)C1CNCc2[nH]c(=O)c3cc(F)c(F)cc3c21` (single isomer, unassigned) [Compound 433, N-(8,9-Difluoro-6-oxo-1,2,3,4,5,6-hexahydrobenzo[c][1,7]naphthyridin-1-yl)-5-(difluoromethyl)-N-methylindolizine-2-carboxamide] was tested, and the EC50 was 50 nM.
Work on `CN(C(=O)c1cc2sc(F)cc2[nH]1)C1CNCc2[nH]c(=O)c3cc(F)c(F)cc3c21` (single isomer, unassigned) [Compound 499, N-(8,9-difluoro-6-oxo-1,2,3,4,5,6-hexahydrobenzo[c][1,7]naphthyridin-1-y1)-2-fluoro-N-methyl-4H-thieno[3,2-b]pyrrole-5-carboxamide] yielded an EC50 of 20000 nM.
In the case of `CN(C(=O)c1cc(F)c(C(F)F)c(F)c1)C1COCc2[nH]c(=O)c3cc(F)ccc3c21` (single isomer, unassigned) [Compound 179, 4-(Difluoromethyl)-3,5-difluoro-N-(8-fluoro-6-oxo-1,4,5,6-tetrahydro-2H-pyrano[3,4-c]isoquinolin-1-yl)-N-methylbenzamide], the EC50 is reported as 50 nM.
With `CN(C(=O)c1cc2c(F)c(F)ccc2[nH]1)C1CNCc2[nH]c(=O)c3cc(F)c(F)cc3c21` (single isomer, unassigned) [Compound 120, N-(8,9-Difluoro-6-oxo-1,2,3,4,5,6-hexahydrobenzo[c][1,7]naphthyridin-1-yl)-4,5-difluoro-N-methyl-1H-indole-2-carboxamide] the EC50 was 850 nM.
`CN(C(=O)C1Cc2cc(F)ccc2N1)C1COCc2[nH]c(=O)c3cc(F)c(F)cc3c21` (single isomer, unassigned) [Compound 7, N-(8,9-Difluoro-6-oxo-1,4,5,6-tetrahydro-2H-pyrano[3,4-c]isoquinolin-1-yl)-5-fluoro-N-methylindoline-2-carboxamide] showed an EC50 of 10 nM.
`CN(C(=O)c1cc2cc(F)c(F)cc2[nH]1)C1COCc2nc(NCCO)c3cc(F)c(F)cc3c21` (single isomer, unassigned) [Compound 335, N-(8,9-Difluoro-6-((2-hydroxyethyl)amino)-1,4-dihydro-2H-pyrano[3,4-c]isoquinolin-1-yl)-5,6-difluoro-N-methyl-1H-indole-2-carboxamide] gave an EC50 of 440 nM.
`CN(C(=O)c1cc2cc(F)c(C(F)F)cc2[nH]1)C1CNCc2[nH]c(=O)c3cc(F)c(F)cc3c21` (single isomer, unassigned) [Compound 220, N-(8,9-Difluoro-6-oxo-1,2,3,4,5,6-hexahydrobenzo[c][1,7]naphthyridin-1-yl)-6-(difluoromethyl)-5-fluoro-N-methyl-1H-indole-2-carboxamide] was tested, and the EC50 was 2450 nM.
Work on `CC(=O)N1Cc2[nH]c(=O)c3cc(F)c(F)cc3c2C(N(C)C(=O)c2cc3ccccc3[nH]2)C1` (single isomer, unassigned) [Compound 81, N-(3-Acetyl-8,9-difluoro-6-oxo-1,2,3,4,5,6-hexahydrobenzo[c][1,7]naphthyridin-1-yl)-N-methyl-1H-indole-2-carboxamide] yielded an EC50 of 14000 nM.
`CN(C(=O)c1cc2cccc(F)c2[nH]1)C1CNCc2[nH]c(=O)c3cc(F)c(F)cc3c21` (single isomer, unassigned) [Compound 114, N-(8,9-Difluoro-6-oxo-1,2,3,4,5,6-hexahydrobenzo[c][1,7]naphthyridin-1-yl)-7-fluoro-N-methyl-1H-indole-2-carboxamide] showed an EC50 of 20 nM.
`CN(C(=O)c1ccc(-c2cccc(F)c2)cc1)C1CNCc2[nH]c(=O)c3cc(F)c(F)cc3c21` (single isomer, unassigned) [Compound 301, N-(8,9-Difluoro-6-oxo-1,2,3,4,5,6-hexahydrobenzo[c][1,7]naphthyridin-1-yl)-3′-fluoro-N-methyl-[1,1′-biphenyl]-4-carboxamide] was tested, and the EC50 was 24500 nM.
In the case of `CN(C(=O)c1cc2c(Cl)cc(F)cc2[nH]1)C1CNCc2[nH]c(=O)c3cc(F)c(F)cc3c21` (single isomer, unassigned) [Compound 461, 4-chloro-N-(8,9-difluoro-6-oxo-1,2,3,4,5,6-hexahydrobenzo[c][1,7]naphthyridin-1-yl)-6-fluoro-N-methyl-1H-indole-2-carboxamide], the EC50 is reported as 30 nM.
In the case of `CN(C(=O)c1ccc2c(c1)CCC2)C1COCc2[nH]c(=O)c3cc(F)ccc3c21` (single isomer, unassigned) [Compound 442, N-(8-Fluoro-6-oxo-1,4,5,6-tetrahydro-2H-pyrano[3,4-c]isoquinolin-1-yl)-N-methyl-2,3-dihydro-1H-indene-5-carboxamide], the EC50 is reported as 19000 nM.
Molecule `Cc1cccc2[nH]c(C(=O)N(C)C3COCc4[nH]c(=O)c5cc(F)ccc5c43)cc12` (single isomer, unassigned) [Compound 422, N-(8-Fluoro-6-oxo-1,4,5,6-tetrahydro-2H-pyrano[3,4-c]isoquinolin-1-yl)-N,4-dimethyl-1H-indole-2-carboxamide] has an EC50 of 1200 nM.
With `CN(C(=O)c1cc2c(Cl)cccn2c1)C1COCc2[nH]c(=O)c3cc(F)c(F)cc3c21` (single isomer, unassigned) [Compound 18, 8-Chloro-N-(8,9-difluoro-6-oxo-1,4,5,6-tetrahydro-2H-pyrano[3,4-c]isoquinolin-1-yl)-N-methylindolizine-2-carboxamide] the EC50 was 10 nM.

Same assay, conditions: Hepatitis B virus, HepDE19, HepDE19 assay, inhibition of rcDNA formation, bDNA quantitation; read-out: DE-19bDNA EC50
Work on `CN(C(=O)c1cc2nc(Br)ccc2[nH]1)[C@@H]1COCc2[nH]c(=O)c3cc(F)c(F)cc3c21` [Compound 268, (S)-5-Bromo-N-(8,9-difluoro-6-oxo-1,4,5,6-tetrahydro-2H-pyrano[3,4-c]isoquinolin-1-yl)-N-methyl-1H-pyrrolo[3,2-b]pyridine-2-carboxamide] yielded an EC50 of 1800 nM.
Molecule `CN(C(=O)c1cc2c(CO)cc(F)cc2[nH]1)[C@@H]1COCc2[nH]c(=O)c3cc(F)c(F)cc3c21` [Compound 355, (S)-N-(8,9-Difluoro-6-oxo-1,4,5,6-tetrahydro-2H-pyrano[3,4-c]isoquinolin-1-yl)-6-fluoro-4-(hydroxymethyl)-N-methyl-1H-indole-2-carboxamide] has an EC50 of 20 nM.
Molecule `CN(C(=O)c1ccc(Br)c(=O)[nH]1)[C@@H]1COCc2[nH]c(=O)c3cc(F)c(F)cc3c21` [Compound 216, (S)-5-Bromo-N-(8,9-difluoro-6-oxo-1,4,5,6-tetrahydro-2H-pyrano[3,4-c]isoquinolin-1-yl)-N-methyl-6-oxo-1,6-dihydropyridine-2-carboxamide] has an EC50 of 7300 nM.
`CN(C(=O)c1cc2sccc2[nH]1)[C@@H]1COCc2[nH]c(=O)c3cc(F)c(F)cc3c21` [Compound 278, (S)-N-(8,9-Difluoro-6-oxo-1,4,5,6-tetrahydro-2H-pyrano[3,4-c]isoquinolin-1-yl)-N-methyl-4H-thieno[3,2-b]pyrrole-5-carboxamide] showed an EC50 of 20 nM.
`Cc1cc(F)cc2[nH]c(C(=O)N(C)[C@@H]3CCCc4[nH]c(=O)c5cc(F)c(F)cc5c43)cc12` [Compound 485, (R)-N-(8,9-difluoro-6-oxo-1,2,3,4,5,6-hexahydrophenanthridin-1-yl)-6-fluoro-N,4-dimethyl-1H-indole-2-carboxamide] gave an EC50 of 10 nM.
`CNS(=O)(=O)c1cccc(C(=O)N(C)[C@@H]2COCc3[nH]c(=O)c4cc(F)c(F)cc4c32)c1` [Compound 296, (S)-N-(8,9-Difluoro-6-oxo-1,4,5,6-tetrahydro-2H-pyrano[3,4-c]isoquinolin-1-yl)-N-methyl-3-(N-methylsulfamoyl)benzamide] was tested, and the EC50 was 890 nM.
Molecule `Cc1cc(F)cc2[nH]c(C(=O)N(C)[C@@H]3COCc4[nH]c(=O)c5cc(F)c(F)cc5c43)cc12` [Compound 344, (S)-N-(8,9-Difluoro-6-oxo-1,4,5,6-tetrahydro-2H-pyrano[3,4-c]isoquinolin-1-yl)-6-fluoro-N,4-dimethyl-1H-indole-2-carboxamide] has an EC50 of 10 nM.
Work on `CN(C(=O)c1ccc2[nH]ncc2c1)C1CNCc2[nH]c(=O)c3cc(F)c(F)cc3c21` (single isomer, unassigned) [Compound 474, N-(8,9-difluoro-6-oxo-1,2,3,4,5,6-hexahydrobenzo[c][1,7]naphthyridin-1-yl)-N-methyl-1H-indazole-5-carboxamide] yielded an EC50 of 3800 nM.
`CN(C(=O)c1cc2cc(F)c(F)cc2[nH]1)[C@@H]1CCC(O)c2[nH]c(=O)c3cc(F)c(F)cc3c21` (stereo partly drawn) [Compound 503, N-((1R)-8,9-difluoro-4-hydroxy-6-oxo-1,2,3,4,5,6-hexahydrophenanthridin-1-yl)-5,6-difluoro-N-methyl-1H-indole-2-carboxamide] showed an EC50 of 20 nM.
